Source: publication PMC3912015, “Synthetic Multivalent Antifungal Peptides Effective against Fungi” (PLoS ONE, 2014)
≈ marks a conversion by molar mass, not a printed value. Where two headings read alike, the source gives them in different places. Bridge positions count the residues as written; N and C are the ends. Peptide text beside a SMILES is read from it. I, II: the chains in the order shown.

Assays:
[1] = system: C. albicans ATCC10231; assay: microbe, parasite or virus in culture; assay type: cell-based
Experimental: (§1) The yeast strains were cultivated and suspended in Sabouraud’s Dextrose (SD) broth diluted to one sixth at a starting OD600 = ∼0.08 in a flat-bottomed microtitre plate. A serial dilution of peptide in the same broth was mixed with the inoculum to give a final peptide concentration of 0.4–22 µM. The antifungal activity was assessed by monitoring the OD600 in cycles of 30 minutes and an orbital shaking at 100 rpm using an Infinite M200 microplate reader (Tecan Group Ltd., Switzerland) for 24/48 h at 37°C. Cultures without peptides were used as positive controls and broth alone or with 22 µM peptide served as negative controls. The minimum concentration required for complete inhibition was assessed by both visible observations as well as by measuring the OD600 and taken as the MIC. Each experiment was repeated in triplicates. For studying the effects of metal ions, SD broth was adjusted with appropriate concentrations of salts to yield a final concentration of 100 and 135 mM for NaCl and KCl and 0.5–2 mM for CaCl2 and MgCl2. MIC determinations were carried out as described above. C. albicans ATCC10231 cells and salts in broth were taken as a positive control. Salts alone (NaCl, KCl, and CaCl2 and MgCl2) in broth or with 22 µM peptide served as a negative control. The effect of 5% human serum on the activities of B4010 against two C. albicans clinical isolates was determined. The human male serum was centrifuged at 13,000 rpm for 10 mins in order to remove the lipids and the supernatant was collected. The MIC values against clinical isolates of C. albicans 2672R and C. albicans 1976R were determined both in standard medium (SD broth) as well as in standard medium containing 5% serum supernatant as before.

[2] = system: C. albicans ATCC2091; assay: microbe, parasite or virus in culture; assay type: cell-based
Experimental: as §1

[3] = system: C. albicans ATCC24433; assay: microbe, parasite or virus in culture; assay type: cell-based
Experimental: as §1

[4] = system: C. albicans DF1976R; assay: microbe, parasite or virus in culture; assay type: cell-based
Experimental: as §1

[5] = system: C. albicans DF2672R; assay: microbe, parasite or virus in culture; assay type: cell-based
Experimental: as §1

[6] = system: clinical isolates of C. albicans 2672R and C. albicans 1976R; assay: MIC against two clinical isolates, with or without 5% human serum; assay type: cell-based; conditions: Candida albicans; standard medium without serum
Experimental: as §1

[7] = system: C. albicans DF2672R; assay: Time-kill kinetics assay; assay type: cell-based
Experimental: (§2) The time-kill kinetics of B4010 was determined against two strains of C. albicans (ATCC 10231 and DF2672R). The cultures were grown overnight in SD broth and the cell concentration was adjusted to 10^5–10^6 CFU/mL with phosphate buffer. The peptide or antifungals were added to the individual cultures. […] The test solution was incubated at 37°C with constant shaking. 100 µL of the suspension was withdrawn at predetermined time points, serially diluted (10^2 or 10^3 fold) and poured into the SDA plate. The plate was incubated for 48 h at 37°C for colony counting. The data were expressed in terms of % fungal viability relative to the positive control.

[8] = system: rabbit red blood cells; assay: Haemolytic assay; assay type: cell-based; conditions: 4% rabbit erythrocytes, 1 h
Experimental: Haemolytic activity of peptides and antifungal drugs were determined against rabbit red blood cells. Briefly, serial dilution of peptides/antifungals in PBS was mixed with rRBC (final concentration 4% v/v), incubated at 37°C for 1 h and centrifuged at 3000 rpm for 10 minutes. The release of hemoglobin in the supernatant was monitored by measuring the hemoglobin absorbance at 576 nm. The readings from cell suspension in PBS (without any additives) or 1% Triton-X100 were used as 0% or 100% haemolysis.

[9] = system: human conjunctival epithelial cells (IOBA-NHC); assay: cells; assay type: cell-based; conditions: 24 h
Experimental: (§3) Immortalized normal human conjunctival epithelial cells (IOBANHC) were a gift from Yolanda Diebold at the University of Valladolid, Spain [31]. IOBA-NHC cells were cultured under standard conditions (humidified atmosphere of 5% CO2 at 37°C) in DMEM/F12 supplemented with 1 µg/ml bovine pancreas insulin, 2 ng/ml mouse epidermal growth factor, 0.1 µg/ml cholera toxin, 5 µg/ml hydrocortisone, 10% fetal bovine serum (FBS), 50 UI/ml penicillin, and 50 UI/ml streptomycin. Cells from passages 50–80 were used in all experiments. Every day, normal culture development was observed by phase-contrast microscopy. Cells were removed by gentle trypsin incubation at confluence and counted. They were seeded into 96 well culture plates (Corning, Schiphol-Rijk, The Netherlands) for microtitration analysis of flow cytotoxicity assay (∼10,000 cells/well). Cultures were kept at 37°C for 24 h. Subconfluent cells (culture surface covering nearly 70%) were then exposed to various peptide concentrations (0.22–225 µM). Cytotoxicity was measured periodically using MultiTox-Fluor Multiplex assay kit (Promega, WI, USA) by measuring the AFC fluorescence (λex = 485 and λem = 520 nm). We report the cell viability after 24 h incubation of the cells with the peptides since there was no detectable toxicity even after 8 h of incubation.

[10] = assay type: biochemical
Experimental: Small unilamellar vesicles (SUVs) were prepared using PC/PE/PI or PS lipids (5∶2.5∶2.5) containing 15 wt% ergosterol or PC/Cholesterol (10∶1). For the preparation of PC/PE/PI or PS/Erg SUV, the lipids were dissolved in chloroform/methanol (2∶1, v/v) in a glass tube. Ergosterol was dissolved in same solvent and added to lipid mixture to make final ergosterol content of 15 wt%. The Lipid-ergosterol mixture was dried using nitrogen gas to form lipid layer. The film was hydrated in a buffer containing 20 mM PBS (pH 7), vortexed and sonicated. Each cycle of sonication (5 sec, 40°C) was followed by freezing in liquid nitrogen and thawing on a water bath kept at 37°C. The procedure was repeated 5–6 times until an optically clear dispersion appeared. The SUV was divided into two parts. To the first part 50 mM calcein was added and incubated for 1 h. The excess calcein was removed by injecting 100 µL of the calcien-loaded SUV’s into a Ultrahydrogel™ 250 (7.8 mm × 300 mm) column equilibrated with 20 mM PBS (pH 7.0) and eluted isochratically at a flow rate of 1 mL/min for 1.5 column volumes. The calcein-loaded liposomes were mixed with calcein-free liposome (1∶1) to adjust final liposome concentration. Peptide concentration was added to obtain 1∶30 or 1∶15 peptide:liposome ratio. Changes in the fluorescence signal after addition of peptide or Triton X-100 was measured on a PTI spectrofluorometer, using an excitation wavelength of 480 nm and emission wavelength of 512 nm. The Percentage calcein released at each time point was calculated using the equation, [drawing 1]
Where A0 is the observed fluorescence intensity upon addition of peptides, Amin is the average intensity at the baseline (before peptide addition), Amax is the average intensity at the saturation phase after adding 1% Triton X-100. Similar protocol was followed for the preparation of PC/Cholesterol SUVs.

[11] = Isothermal titration calorimetry; assay type: binding; conditions: PC SUVs, 15% ergosterol, 25°C
Experimental: ITC experiments were performed using a Microcal VP-ITC Calorimeter (Microcal, Northampton, MA, USA). SUVs, B4010, and polyene antifungals were dissolved in 10 mM HEPES buffered saline at pH 7.2. […] A total of 40 injections were performed and the heat of reaction produced by each injection was determined by integration of heat flow traces. In a separate experiment, the heat of dilution was determined by titrating SUVs into the buffer solution (without peptide). The heat of dilution was subtracted from the heat changes determined in the peptide/antifungal-liposome experiments.

[12] = in vitro; assay type: cell-based, human; conditions: human
Experimental: as §3

[13] = system: F. solani ATCC36031; assay: microbe, parasite or virus in culture; assay type: cell-based; conditions: Fusarium solani; F. solani ATCC36031
[14] = system: F. solani DM3782; assay: microbe, parasite or virus in culture; assay type: cell-based; conditions: Fusarium solani; F. solani DM3782
[15] = system: F. solani DF1500; assay: microbe, parasite or virus in culture; assay type: cell-based; conditions: Fusarium solani; F. solani DF1500
[16] = system: C. albicans ATCC 10231; assay: Time-kill kinetics assay; assay type: cell-based; conditions: 16× MIC
Experimental: as §2

[17] = Candida albicans, ATCC10231, Table 3, read-out: MIC in µM against Ca 10231
[18] = Candida albicans, ATCC2091, Table 3, read-out: MIC in µM against Ca 2091
[19] = Candida albicans, ATCC24433, Table 3, read-out: MIC in µM against Ca 24433
[20] = Candida albicans, DF1976R, Table 3, read-out: MIC in µM against Ca DF1976R
[21] = Candida albicans, DF2672R, Table 3, read-out: MIC in µM against Ca 2672R
[22] = Homo sapiens, Epithelial cell, 24 h exposure, read-out: EC50 (effective concentration required to kill 50% of human conjunctival epithelial cells)

Row | Structure (SMILES) | MIC [1, 17] | MIC [2, 18] | MIC [3, 19] | MIC [4, 20] | MIC [5, 21] | MIC [6] | HC50 [8] | EC50 [9, 22] | % Calcein released from PC/PE/PS/Erg [10] | further results
1 | C[C@@H]1[C@H](O)[C@@H](C)/C=C/C=C/C=C/C=C/C=C/C=C/C=C/[C@H](O[C@@H]2O[C@H](C)[C@@H](O)[C@H](N)[C@@H]2O)C[C@@H]2O[C@](O)(C[C@@H](O)C[C@@H](O)[C@H](O)CC[C@@H](O)C[C@@H](O)CC(=O)O[C@H]1C)C[C@H](O)[C@H]2C(=O)O [Amphotericin B, reference compound] | 1.35 µM (≈ 1.25 µg/mL) | < 0.4 µM | 1.35 µM (≈ 1.25 µg/mL) | 1.35 µM (≈ 1.25 µg/mL) | 1.35 µM (≈ 1.25 µg/mL) | 1.4 µM (≈ 1.29 µg/mL) | 59.4 ± 7.8 µM | 134 ± 16 µM | 0% | time to maximal effect ([7]; 16× MIC): less than 8 h; affinity for membrane bound ergosterol (ITC) [11]: strong affinity
2 | CC(C)[C@H](NC(=O)[C@H](CCCCN)NC(=O)[C@H](C)NC(=O)CNC(=O)[C@@H](N)CCCNC(=N)N)C(=O)N[C@H](C(=O)N[C@@H](CCCNC(=N)N)C(=O)N[C@@H](CCCNC(=N)N)C(=O)NCCCC[C@H](NC(=O)[C@H](CCCNC(=N)N)NC(=O)[C@H](CCCNC(=N)N)NC(=O)[C@@H](NC(=O)[C@@H](NC(=O)[C@H](CCCCN)NC(=O)[C@H](C)NC(=O)CNC(=O)[C@@H](N)CCCNC(=N)N)C(C)C)C(C)C)C(=O)NCCCC[C@H](NC(=O)[C@H](CCCCNC(=O)[C@H](CCCNC(=N)N)NC(=O)[C@H](CCCNC(=N)N)NC(=O)[C@@H](NC(=O)[C@@H](NC(=O)[C@H](CCCCN)NC(=O)[C@H](C)NC(=O)CNC(=O)[C@@H](N)CCCNC(=N)N)C(C)C)C(C)C)NC(=O)[C@H](CCCNC(=N)N)NC(=O)[C@H](CCCNC(=N)N)NC(=O)[C@@H](NC(=O)[C@@H](NC(=O)[C@H](CCCCN)NC(=O)[C@H](C)NC(=O)CNC(=O)[C@@H](N)CCCNC(=N)N)C(C)C)C(C)C)C(=O)N[C@@H](CCCCN)C(=O)O)C(C)C [B4010_R3A] (I: H-RGAKVVRRKKK-OH / II: H-RGAKVVRRK / III: H-RGAKVVRR / IV: H-RGAKVVRR; amide I:9-IV:C, I:10-II:C, II:9-III:C; N-terminus and C-terminus assumed) | – | – | – | – | – | – | – | – | ~63% | MIC ([1]; ATCC10231, 48 h, read-out: MIC in µM against Ca 10231): 1.5 µM (≈ 6.33 µg/mL); MIC ([2]; ATCC2091, 48 h, read-out: MIC in µM against Ca 2091): 1.5 µM (≈ 6.33 µg/mL); MIC ([3]; ATCC24433, 48 h, read-out: MIC in µM against Ca 24433): 1.5 µM (≈ 6.33 µg/mL); MIC ([4]; DF1976R, 48 h, read-out: MIC in µM against Ca DF1976R): 0.4 µM (≈ 1.69 µg/mL); MIC ([5]; DF2672R, 48 h, read-out: MIC in µM against Ca 2672R): 0.4 µM (≈ 1.69 µg/mL); viability at 24 h, 237 µM [12]: 80.9%; EC50 [9]: > 237 µM
3 | C[C@@H]1C/C=C/C=C/C=C/C=C/[C@H](O[C@@H]2O[C@H](C)[C@@H](O)[C@H](N)[C@@H]2O)C[C@@H]2O[C@](O)(C[C@@H](O)C[C@H]3O[C@@H]3/C=C/C(=O)O1)C[C@H](O)[C@H]2C(=O)O [Natamycin, reference compound] | 15 µM (≈ 9.99 µg/mL) | 7.5 µM (≈ 4.99 µg/mL) | 15 µM (≈ 9.99 µg/mL) | 15 µM (≈ 9.99 µg/mL) | 15 µM (≈ 9.99 µg/mL) | 15 µM (≈ 9.99 µg/mL) | 139.6 ± 0.18 µM | 212 ± 20.5 µM | 0% | MIC ([1]; Candida albicans, C. albicans ATCC10231, read-out: MIC): 15 µM (≈ 9.99 µg/mL); MIC ([2]; Candida albicans, C. albicans ATCC2091, read-out: MIC): 7.5 µM (≈ 4.99 µg/mL); MIC ([3]; Candida albicans, C. albicans ATCC24433, read-out: MIC): 15 µM (≈ 9.99 µg/mL); MIC ([4]; Candida albicans, C. albicans DF1976R, read-out: MIC): 15 µM (≈ 9.99 µg/mL); MIC ([5]; Candida albicans, C. albicans DF2672R, read-out: MIC): 15 µM (≈ 9.99 µg/mL); MIC [13]: 4.7 µM (≈ 3.13 µg/mL); MIC [14]: 2.4 µM (≈ 1.6 µg/mL); MIC [15]: 2.4 µM (≈ 1.6 µg/mL); time required to achieve similar endpoints (4 log reduction) [16]: 24 h; fungicidal action ([7]; 2× MIC, 24 h exposure): no fungicidal action
